Nine compounds from PubChem BioAssay (NCI) can be followed below.

Assay in all cases: inhibition of tumour cell growth, NCI panel, 48 h
The test system of experiment [1] is 786-0 renal.
Experiment [2] deals with A549 NSCLC.
Experiment [3] concerns CAKI-1 renal.
Experiment [4] deals with HL-60(TB) leukemia.
The test system of experiment [5] is HOP-92 NSCLC.
The subject of experiment [6] is HT29 colon.
Experiment [7] concerns M14 melanoma.
Experiment [8] relates to MALME-3M melanoma.
The subject of experiment [9] is OVCAR-3 ovarian.
For experiment [10], the system named is SN12C renal.

Several values for one entry are separate records, joined by “and”; a condition that tells them apart may be missing. Identical values can stand only once.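 Assay format: 96-well plates, 48-hour exposure. GI50 marks 50% less growth. Definition used: TGI = concentration required for complete inhibition of growth.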

For the compound `Cn1cnc([N+](=O)[O-])c1Sc1ncnc2c1ncn2C1OC(CO)C(O)C1O` (stereo not drawn), the GI50 was 5.35 µM in experiment [1]; 29.3 µM in experiment [2]; 3.53 µM in experiment [3]; 22.6 µM in [4]; 31.3 µM in experiment [5]; 7.3 µM in experiment [6]. Besides, the GI50 in experiment [7] was 2.29 µM; in experiment [8], 46.3 µM; in experiment [9] it was 3.93 µM; in experiment [10], 41.9 µM. Further, the TGI in experiment [1], in [2], in experiment [3], in experiment [4], in experiment [5] and in experiment [6] was greater than 100 µM each time. For the same compound, the TGI in experiment [7], in [8], in experiment [9] and in [10] was greater than 100 µM each time.
With `CCC1(CN(C)C)CC/C(=C\c2ccc3c(c2)OCO3)C1=O` (stereo not drawn), the TGI in experiment [1], in experiment [2], in [3], in [4], in experiment [5] and in experiment [6] was greater than 100 µM in each case. Further, the TGI in [7], in experiment [8], in experiment [9] and in experiment [10] was greater than 100 µM each time.
In the case of `CN(C)c1ccc(/C=C/c2ccnc3ccccc23)cc1`, the GI50 in experiment [1] was 3.77 µM; in experiment [2], 4.14 µM; in [3], 9.68 µM; in experiment [4], 2.86 µM; in experiment [5], 0.651 µM; in experiment [6] it was 3.18 µM. Also, the GI50 in [7] is 2.55 µM; in [8], 11.2 µM; in [9], 2.71 µM; in experiment [10], 3.95 µM. Also, the TGI in [1] was > 100 µM and 21.6 µM; in experiment [2], greater than 100 µM; in experiment [3] it was > 100 µM and 45 µM; in experiment [4] it was > 100 µM and 16.8 µM; in [5], > 100 µM and 10.8 µM; in experiment [6], 84.3 µM and 11.8 µM. Also, the TGI in [7] was > 100 µM and 12.7 µM; in experiment [8] it was > 100 µM and 55.4 µM; in experiment [10] it was greater than 100 µM.
As to `C[Se]C(=O)CC1=C2C=C(F)C=CC2/C(=C\c2ccc(S(C)=O)cc2)C1C` (stereo not drawn), the GI50 is 0.207 µM in experiment [1]; 0.0257 µM in experiment [2]; 0.0253 µM in experiment [3]; 0.416 µM in experiment [4]; 0.165 µM in [5]; less than 0.0318 µM in experiment [6]. The GI50 was 0.0387 µM in experiment [7], 0.156 µM in [8], 0.0336 µM in experiment [9] and 0.0401 µM in [10]. For the same compound, the TGI in experiment [1] was 1.71 µM; in experiment [2] it was 2.66 µM; in experiment [3], 0.478 µM; in [4] it was 2.41 µM; in [5] it was 0.417 µM; in [6] it was greater than 100 µM. Further, the TGI turned out to be 1.52 µM in experiment [7], 0.4 µM in [8], 0.26 µM in [9] and 1.34 µM in experiment [10].
As for `COc1ccc(C(Nc2ncccn2)c2cc3c(cc2O)OCO3)cc1` (stereo not drawn), the TGI in [1] is 39.3 µM; in experiment [2], greater than 100 µM; in experiment [3], 46.9 µM; in [4], 46 µM; in [5], greater than 100 µM; in experiment [6] it was 58.4 µM. Also, the TGI is 39.4 µM in [7], 54.6 µM in experiment [8], 32.7 µM in experiment [9] and 37.8 µM in experiment [10].
Take `COc1cc(Br)c(CC2=NCCc3cc(OC)c(OC)cc32)cc1OC`: the TGI in experiment [1] is greater than 100 µM; in experiment [2], greater than 100 µM; in experiment [3] it was greater than 100 µM; in [4], 38 µM; in experiment [5], 60.3 µM; in experiment [6], greater than 100 µM. Moreover, the TGI is 65.8 µM in [7], greater than 100 µM in experiment [8], greater than 100 µM in [9] and greater than 100 µM in experiment [10].
For `CCOC(=O)C(C[Si](C)(C)C)P(=O)(OCC)OCC` (stereo not drawn), the TGI in experiment [1], in [2], in experiment [3], in [4], in [5] and in experiment [6] was greater than 100 µM each time. For the same compound, the TGI in [7], in experiment [8], in experiment [9] and in experiment [10] was greater than 100 µM each time.
Consider `CN(Cc1cnc2nc(N)nc(N)c2n1)c1ccc(C(=O)NC(CCC(=O)O)C(=O)O)cc1` (stereo not drawn), for which the GI50 in experiment [1] was 0.0428 µM; in experiment [2], 0.0605 µM; in [3], 0.0544 µM; in [4], 0.0742 µM; in [6], 0.0564 µM; in experiment [7] it was 0.0777 µM. Further, the GI50 was 43 µM in experiment [8], 1.23 µM in [9] and 0.0595 µM in [10]. Also, the TGI in experiment [1], in experiment [2], in experiment [3], in experiment [4], in experiment [5] and in experiment [6] was greater than 100 µM in each case. Further, the TGI in experiment [7], in experiment [8], in experiment [9] and in experiment [10] was greater than 100 µM in each case.
`COc1ccc(/C=C2\N=C3SC=C(N)N3C2=O)cc1`: the GI50 in [1] is 1.28 µM; in experiment [2], 1.64 µM; in experiment [3], 1.32 µM; in [4], 1.12 µM; in [5], 0.224 µM; in [6] it was 1.21 µM. Moreover, the GI50 in [7] is 1.21 µM; in experiment [8], 0.23 µM; in experiment [9] it was 1.14 µM; in experiment [10], 1.57 µM. The TGI in experiment [1] was found to be 2.7 µM; in [2] it was 15.6 µM; in experiment [3], 7.01 µM; in experiment [4], 4.6 µM; in experiment [5], 1.93 µM; in experiment [6] it was 3.37 µM. Also, the TGI in experiment [7] came to 4.73 µM; in experiment [8], 1.52 µM; in experiment [9] it was 2.98 µM; in experiment [10], 7.35 µM.
